Columns and labels:
[1] = test system: VERPE; experiment: Pre-emergence herbicidal action against VERPE; type: in vivo, Veronica persica; conditions: dosage 80 g/ha
Method in brief: (§1)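 Herbicidal effect was assessed 3 weeks after treatment by visual comparison with untreated controls, 100% denoting dead plants. Aqueous WP or EC preparations had been applied at 600 to 800 l/ha with 0.2% wetting agent to the soil covering freshly sown seeds.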

[2] = test system: VIOTR; experiment: Pre-emergence herbicidal action against VIOTR; type: in vivo, Viola tricolor
Method in brief: as §1

[3] = test system: MATIN; experiment: Post-emergence herbicidal action against MATIN; type: in vivo, Matricaria inodora; conditions: dosage 20 g/ha
Method in brief: (§2)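 Herbicidal effect was scored visually in percent after about 3 weeks in the greenhouse. Plants had been raised in sandy loam and treated post-emergence at the one-leaf stage with formulated compound at 600 to 800 l/ha water plus 0.2% wetting agent.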

[4] = test system: MATIN; experiment: Pre-emergence herbicidal action against MATIN; type: in vivo, Matricaria inodora
Method in brief: as §1

[5] = test system: ABUTH; experiment: Pre-emergence herbicidal action against ABUTH; type: in vivo, Abutilon theophrasti
Method in brief: as §1

[6] = test system: ECHCG; experiment: Pre-emergence herbicidal action against ECHCG; type: in vivo, Echinochloa crus-galli
Method in brief: as §1

[7] = test system: SETVI; experiment: Pre-emergence herbicidal action against SETVI; type: in vivo, Setaria viridis; conditions: dosage 80 g/ha
Method in brief: as §1

[8] = test system: POLCO; experiment: Pre-emergence herbicidal action against POLCO; type: in vivo, Polygonum convolvulus; conditions: dosage 80 g/ha
Method in brief: as §1

[9] = test system: ECHCG; experiment: Post-emergence herbicidal action against ECHCG; type: in vivo, Echinochloa crus-galli
Method in brief: as §2

[10] = test system: PHBPU; experiment: Pre-emergence herbicidal action against PHBPU; type: in vivo, Pharbitis purpurea; conditions: dosage 80 g/ha
Method in brief: as §1

[11] = test system: DIGSA; experiment: Pre-emergence herbicidal action against DIGSA; type: in vivo, Digitaria sanguinalis
Method in brief: as §1

[12] = test system: AMARE; experiment: Pre-emergence herbicidal action against AMARE; type: in vivo, Amaranthus retroflexus
Method in brief: as §1

[13] = test system: AMARE; experiment: Post-emergence herbicidal action against AMARE; type: in vivo, Amaranthus retroflexus; conditions: 20 g/ha, visual assessment about 3 weeks after treatment, 100% = plants have died, 0% = like control plants
Method in brief: as §2

[14] = test system: ALOMY; experiment: Pre-emergence herbicidal action against ALOMY; type: in vivo, Alopecurus myosuroides; conditions: pre-emergence
Method in brief: as §1

[15] = test system: AVEFA; experiment: Pre-emergence herbicidal action against AVEFA; type: in vivo, Avena fatua; conditions: Avena fatua, 504 h, pre-emergence
Method in brief: as §1

[16] = test system: ABUTH; experiment: Post-emergence herbicidal action against ABUTH; type: in vivo, Abutilon theophrasti; conditions: Abutilon theophrasti, 504 h, dosage 20 g/ha, visual assessment about 3 weeks after treatment vs untreated controls
Method in brief: as §2

[17] = test system: PHBPU; experiment: Post-emergence herbicidal action against PHBPU; type: in vivo, Pharbitis purpurea; conditions: dosage 20 g/ha
Method in brief: as §2

[18] = 80 g/ha, scored visually after 3 weeks vs untreated controls (100% = plants have died, 0% = like control plants)
[19] = dosage 20 g/ha, scored visually after 3 weeks vs untreated controls, 100% = plants have died, 0% = like control plants
[20] = 20 g/ha, scored visually after 3 weeks vs untreated controls, 100% = plants have died, 0% = like control plants

CCn1nnnc1NC(=O)c1ccc(C(F)F)c(C(=O)NC2CCC2)c1Cl [Example 2-164]
Pre-emergence action against VERPE in % [1]: 100% | Pre-emergence action against VIOTR in % ([2]; dosage 80 g/ha): 100% | Post-emergence action against MATIN in % [3]: 80% | Pre-emergence action against MATIN in % ([4]; dosage 20 g/ha): 100% | Pre-emergence action against MATIN in % ([4]; dosage 80 g/ha): 100% | Pre-emergence action against ABUTH (herbicidal activity) [5, 18]: 100% | Pre-emergence action against ABUTH (herbicidal activity in percent) [5, 19]: 90% | Pre-emergence action against ECHCG in % ([6]; 80 g/ha): 80% | Pre-emergence action against SETVI in % [7]: 80% | Pre-emergence action against POLCO in % [8]: 90% | Post-emergence action against ECHCG in % ([9]; dosage 20 g/ha): 80% | Pre-emergence action against PHBPU in % [10]: 100% | Pre-emergence action against DIGSA in % ([11]; dosage 80 g/ha): 100% | Pre-emergence action against AMARE in % [12, 20]: 100% | Pre-emergence action against AMARE in % [12, 18]: 100% | Post-emergence action at 20 g/ha against AMARE in % [13]: 90%

Cn1nnnc1NC(=O)c1ccc(C(F)(F)F)c(C(=O)NCC(F)(F)F)c1Br [Example 1-211]
pest or weed control at 80 g/ha ([1]; Veronica persica, 504 h): 100% | pest or weed control at 80 g/ha ([2]; Viola tricolor, 504 h, dosage 80 g/ha): 100% | pest or weed control at 80 g/ha ([14]; Alopecurus myosuroides, 504 h, 80 g/ha, scored visually after 3 weeks vs untreated controls (100% = plants have died, 0% = like control plants)): 100% | pest or weed control at 20 g/ha ([14]; Alopecurus myosuroides, 504 h, 20 g/ha, scored visually after 3 weeks, 100% = plants have died, 0% = like control plants): 90% | pest or weed control at 20 g/ha ([4]; Tripleurospermum inodorum, 504 h, dosage 20 g/ha): 90% | pest or weed control at 80 g/ha ([4]; Tripleurospermum inodorum, 504 h, dosage 80 g/ha): 100% | pest or weed control at 80 g/ha ([5]; Abutilon theophrasti, 504 h, 80 g/ha, scored visually after 3 weeks vs untreated controls (100% = plants have died, 0% = like control plants)): 100% | pest or weed control at 20 g/ha ([5]; Abutilon theophrasti, 504 h, dosage 20 g/ha, scored visually after 3 weeks vs untreated controls, 100% = plants have died, 0% = like control plants, read-out: Pre-emergence action against ABUTH (herbicidal activity in percent)): 100% | pest or weed control at 80 g/ha ([15]; 80 g/ha): 90% | pest or weed control at 20 g/ha ([15]; 20 g/ha, scored visually after 3 weeks, 100% = plants have died, 0% = like control plants): 80% | pest or weed control at 20 g/ha ([6]; Echinochloa crus-galli, 504 h, 20 g/ha): 90% | pest or weed control at 80 g/ha ([6]; Echinochloa crus-galli, 504 h, 80 g/ha): 100% | pest or weed control at 20 g/ha [16]: 80% | pest or weed control at 80 g/ha ([7]; Setaria viridis, 504 h): 100% | pest or weed control at 80 g/ha ([8]; Fallopia convolvulus, 504 h): 90% | pest or weed control at 5 g/ha ([9]; Echinochloa crus-galli, 504 h, dosage 5 g/ha): 80% | pest or weed control at 20 g/ha ([9]; Echinochloa crus-galli, 504 h, dosage 20 g/ha): 90% | pest or weed control at 80 g/ha ([10]; Ipomoea purpurea, 504 h): 80% | pest or weed control at 20 g/ha ([12]; Amaranthus retroflexus, 504 h, 20 g/ha, scored visually after 3 weeks vs untreated controls, 100% = plants have died, 0% = like control plants): 100% | pest or weed control at 80 g/ha ([12]; Amaranthus retroflexus, 504 h, 80 g/ha, scored visually after 3 weeks vs untreated controls, 100% = plants have died, 0% = like control plants): 100% | pest or weed control at 20 g/ha ([13]; Amaranthus retroflexus, 504 h): 90%

CCn1nnnc1NC(=O)c1ccc(C(F)(F)F)c(C(=O)NCCOC)c1Cl [Example 2-138]
Pre-emergence action against VERPE in % [1]: 100% | Pre-emergence action against VIOTR in % ([2]; dosage 20 g/ha): 90% | Pre-emergence action against VIOTR in % ([2]; dosage 80 g/ha): 100% | Pre-emergence action against ALOMY (herbicidal activity) [14, 18]: 90% | Pre-emergence action against MATIN in % ([4]; dosage 20 g/ha): 90% | Pre-emergence action against MATIN in % ([4]; dosage 80 g/ha): 100% | Pre-emergence action against ABUTH (herbicidal activity) [5, 18]: 100% | Pre-emergence action against ABUTH (herbicidal activity in percent) [5, 19]: 80% | Pre-emergence action against ECHCG in % ([6]; 80 g/ha): 90% | Pre-emergence action against SETVI in % [7]: 80% | Post-emergence action against PHBPU in % [17]: 80% | Pre-emergence action against POLCO in % [8]: 90% | Post-emergence action against ECHCG in % ([9]; dosage 5 g/ha): 80% | Post-emergence action against ECHCG in % ([9]; dosage 20 g/ha): 90% | Pre-emergence action against PHBPU in % [10]: 80% | Pre-emergence action against DIGSA in % ([11]; dosage 20 g/ha): 100% | Pre-emergence action against DIGSA in % ([11]; dosage 80 g/ha): 100% | Pre-emergence action against AMARE in % [12, 20]: 100% | Pre-emergence action against AMARE in % [12, 18]: 100% | Post-emergence action at 20 g/ha against AMARE in % [13]: 90%

— patent publication US12655116B2, “Substituted isophthalic acid diamides” (Bayer Aktiengesellschaft, priority 2020, dated 2026)
